From US10617636B2, “Cannabis infused sweeteners and elixirs” (SRE Wellness, Inc., priority 2016, dated 2020)

Assay: Emulsification of coconut oil and water with different emulsifiers (Example 2)
Format: physicochemical
Settings: coconut oils solid and liquid (MCT); emulsifying agent tested
Protocol: Several experiments were run using several different emulsifiers and combinations of different coconut oils: solid and liquid (MCT). (Note: liquid MCT is coconut oil that has medium chain triglyceride).
The method used to produce the invention emulsifications, included first heating extra virgin organic coconut oil to between 120 to 220 degrees F. CO2 extracted cannabis oil is added. In a high speed blender (or similar machine) coconut water is added to the coconut fat (oil) to ensure emulsification. While blending, xanthan gum powder is added in an amount between 0.15% and 0.45% of the total volume of finished product. Percentages used herein are on a dry weight basis and are based on the total volume of the finished product. The blender is run at high speed for between 30 seconds and 2.

cyclodextrin
emulsification of the oil and water (result in words): good results
